Data published in patent US20230085307A1, “PYRIDAZINONE COMPOUND AND HERBICIDE” (NISSAN CHEMICAL CORPORATION, priority 2019, published 2023).

Key:
wild oat [1] = assay: Test Example 5: herbicidal effect by foliage application, plastic box (Table 20, symbol I); assay type: in vivo, wild oat (Avena fatua); conditions: amount of applied herbicide 320 g/ha; foliage application after 14-day growth; evaluated three weeks after application
Procedure, shortened: (§1)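 Foliar spray test: emulsion formulation diluted in water to a set application rate, sprayed onto 14-day-old plants raised in diluvial soil at 25° C to 30° C under glass. Both herbicidal effect and crop effect rated visually three weeks later.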

velvetleaf [2] = assay: Test Example 4: herbicidal effect by soil treatment (Table 19, symbol M); assay type: in vivo, velvetleaf (Abutilon theophrasti); conditions: amount of applied herbicide 320 g/ha
Procedure, shortened: (§2)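 Step 1: sow seeds in sterilized diluvial soil, cover ~1.5 cm. Step 2: spray diluted emulsion onto soil surface at predetermined rate. Step 3: greenhouse, 25–30° C, three weeks. Step 4: grade effect on each plant by earlier criteria.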

lambsquarters [3] = assay: Test Example 4: herbicidal effect by soil treatment (Table 19, symbol O); assay type: in vivo, lambsquarters (Chenopodium album); conditions: amount of applied herbicide 320 g/ha
Procedure, shortened: as §2

rice flat sedge = assay: Test Example 3: herbicidal effect by foliage application, Wagner pot (Table 18, symbol E); assay type: in vivo, rice flat sedge (Cyperus iria); conditions: 320 g/ha
Procedure, shortened: (§3)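 Plants were sown in alluvial soil held under 0.1–0.5 cm standing water and grown 14 days in a greenhouse at 25–30 °C. An emulsifiable formulation, water-diluted to the set dose, was then sprayed onto the foliage, and effects were scored three weeks later using previously defined criteria.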

redroot pigweed [4] = assay: Test Example 5: herbicidal effect by foliage application, plastic box (Table 20, symbol N); assay type: in vivo, redroot pigweed (Amaranthus retroflexus); conditions: amount of applied herbicide 320 g/ha; foliage application after 14-day growth; evaluated three weeks after application
Procedure, shortened: as §1

windgrass [5] = assay: Test Example 5: herbicidal effect by foliage application, plastic box (Table 20, symbol L); assay type: in vivo, windgrass (Apera spica-venti); conditions: amount of applied herbicide 320 g/ha; foliage application after 14-day growth; evaluated three weeks after application
Procedure, shortened: as §1

green foxtail [6] = assay: Test Example 5: herbicidal effect by foliage application, plastic box (Table 20, symbol G); assay type: in vivo, green foxtail (Setaria viridis); conditions: amount of applied herbicide 320 g/ha; foliage application after 14-day growth; evaluated three weeks after application
Procedure, shortened: as §1

windgrass [7] = assay: Test Example 4: herbicidal effect by soil treatment (Table 19, symbol L); assay type: in vivo, windgrass (Apera spica-venti); conditions: amount of applied herbicide 320 g/ha
Procedure, shortened: as §2

barnyard grass [8] = assay: Test Example 4: herbicidal effect by soil treatment (Table 19, symbol H); assay type: in vivo, barnyard grass (Echinochloa crus-galli); conditions: amount of applied herbicide 320 g/ha
Procedure, shortened: as §2

southern crabgrass [9] = assay: Test Example 4: herbicidal effect by soil treatment (Table 19, symbol F); assay type: in vivo, southern crabgrass (Digitaria ciliaris); conditions: amount of applied herbicide 320 g/ha
Procedure, shortened: as §2

chickweed [10] = assay: Test Example 4: herbicidal effect by soil treatment (Table 19, symbol P); assay type: in vivo, common chickweed (Stellaria media); conditions: amount of applied herbicide 320 g/ha
Procedure, shortened: as §2

blackgrass [11] = assay: Test Example 4: herbicidal effect by soil treatment (Table 19, symbol J); assay type: in vivo, blackgrass (Alopecurus myosuroides); conditions: amount of applied herbicide 320 g/ha
Procedure, shortened: as §2

Japanese bulrush = assay: Test Example 1: herbicidal activity, application before weed generation under submerged conditions (Table 16, symbol B); assay type: in vivo, Japanese bulrush (Schoenoplectus juncoides); conditions: amount of applied herbicide 320 g/ha
Procedure, shortened: (§4)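 Emulsion formulation, water-diluted to set dose, was put onto the flooded surface (4 cm depth, alluvial soil) the same day weeds were sown and 2.5-leaf rice transplanted. After 3 weeks at 25-30 °C under glass, each species was rated 0 (≤5% kill) to 5 (≥90% kill).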

Italian ryegrass [12] = assay: Test Example 5: herbicidal effect by foliage application, plastic box (Table 20, symbol K); assay type: in vivo, Italian ryegrass (Lolium multiflorum); conditions: amount of applied herbicide 320 g/ha; foliage application after 14-day growth; evaluated three weeks after application
Procedure, shortened: as §1

lambsquarters [13] = assay: Test Example 5: herbicidal effect by foliage application, plastic box (Table 20, symbol O); assay type: in vivo, lambsquarters (Chenopodium album); conditions: amount of applied herbicide 320 g/ha; foliage application after 14-day growth; evaluated three weeks after application
Procedure, shortened: as §1

wild oat [14] = assay: Test Example 4: herbicidal effect by soil treatment (Table 19, symbol I); assay type: in vivo, wild oat (Avena fatua); conditions: amount of applied herbicide 320 g/ha
Procedure, shortened: as §2

Chinese sprangletop = assay: Test Example 3: herbicidal effect by foliage application, Wagner pot (Table 18, symbol D); assay type: in vivo, chinese sprangletop (Leptochloa chinensis); conditions: 320 g/ha
Procedure, shortened: as §3

chickweed [15] = assay: Test Example 5: herbicidal effect by foliage application, plastic box (Table 20, symbol P); assay type: in vivo, common chickweed (Stellaria media); conditions: amount of applied herbicide 320 g/ha; foliage application after 14-day growth; evaluated three weeks after application
Procedure, shortened: as §1

barnyard grass [16] = assay: Test Example 5: herbicidal effect by foliage application, plastic box (Table 20, symbol H); assay type: in vivo, barnyard grass (Echinochloa crus-galli); conditions: amount of applied herbicide 320 g/ha; foliage application after 14-day growth; evaluated three weeks after application
Procedure, shortened: as §1

blackgrass [17] = assay: Test Example 5: herbicidal effect by foliage application, plastic box (Table 20, symbol J); assay type: in vivo, blackgrass (Alopecurus myosuroides); conditions: amount of applied herbicide 320 g/ha; foliage application after 14-day growth; evaluated three weeks after application
Procedure, shortened: as §1

late watergrass = assay: Test Example 1: herbicidal activity, application before weed generation under submerged conditions (Table 16, symbol A); assay type: in vivo, late watergrass (Echinochloa oryzicola); conditions: amount of applied herbicide 320 g/ha
Procedure, shortened: as §4

Italian ryegrass [18] = assay: Test Example 4: herbicidal effect by soil treatment (Table 19, symbol K); assay type: in vivo, Italian ryegrass (Lolium multiflorum); conditions: amount of applied herbicide 320 g/ha
Procedure, shortened: as §2

redroot pigweed [19] = assay: Test Example 4: herbicidal effect by soil treatment (Table 19, symbol N); assay type: in vivo, redroot pigweed (Amaranthus retroflexus); conditions: amount of applied herbicide 320 g/ha
Procedure, shortened: as §2

oval-leafed pondweed = assay: Test Example 1: herbicidal activity, application before weed generation under submerged conditions (Table 16, symbol C); assay type: in vivo, oval-leafed pondweed (Monochoria vaginalis); conditions: amount of applied herbicide 320 g/ha
Procedure, shortened: as §4

green foxtail [20] = assay: Test Example 4: herbicidal effect by soil treatment (Table 19, symbol G); assay type: in vivo, green foxtail (Setaria viridis); conditions: amount of applied herbicide 320 g/ha
Procedure, shortened: as §2

velvetleaf [21] = assay: Test Example 5: herbicidal effect by foliage application, plastic box (Table 20, symbol M); assay type: in vivo, velvetleaf (Abutilon theophrasti); conditions: amount of applied herbicide 320 g/ha; foliage application after 14-day growth; evaluated three weeks after application
Procedure, shortened: as §1

persian speedwell = assay: Test Example 5: herbicidal effect by foliage application, plastic box (Table 20, symbol R); assay type: in vivo, Persian speedwell (Veronica persica); conditions: amount of applied herbicide 320 g/ha; foliage application after 14-day growth; evaluated three weeks after application
Procedure, shortened: as §1

barnyard grass [22] = assay: Test Example 3: herbicidal effect by foliage application, Wagner pot (Table 18, symbol H); assay type: in vivo, barnyard grass (Echinochloa crus-galli); conditions: 320 g/ha
Procedure, shortened: as §3

southern crabgrass [23] = assay: Test Example 5: herbicidal effect by foliage application, plastic box (Table 20, symbol F); assay type: in vivo, southern crabgrass (Digitaria ciliaris); conditions: amount of applied herbicide 320 g/ha; foliage application after 14-day growth; evaluated three weeks after application
Procedure, shortened: as §1

Row | SMILES | Herbicidal effect by foliage application, I: wild oat (wild oat [1]) | herbicidal effect on rice flat sedge (E) (rice flat sedge) | Herbicidal effect by foliage application, N: redroot pigweed (redroot pigweed [4]) | Herbicidal effect by foliage application, L: windgrass (windgrass [5]) | Herbicidal effect by foliage application, G: green foxtail (green foxtail [6]) | Herbicidal effect, B: Japanese bulrush (Japanese bulrush) | Herbicidal effect by foliage application, K: Italian ryegrass (Italian ryegrass [12]) | Herbicidal effect by foliage application, O: lambsquarters (lambsquarters [13]) | herbicidal effect on Chinese sprangletop (D) (Chinese sprangletop) | Herbicidal effect by foliage application, P: chickweed (chickweed [15]) | Herbicidal effect by foliage application, H: barnyard grass (barnyard grass [16]) | Herbicidal effect by foliage application, J: blackgrass (blackgrass [17]) | Herbicidal effect, A: late watergrass (late watergrass) | Herbicidal effect, C: oval-leafed pondweed (oval-leafed pondweed) | Herbicidal effect by foliage application, M: velvetleaf (velvetleaf [21]) | Herbicidal effect by foliage application, R: persian speedwell (persian speedwell) | herbicidal effect on barnyard grass (H) (barnyard grass [22]) | Herbicidal effect by foliage application, F: southern crabgrass (southern crabgrass [23]) | also measured
1 | CCOc1cc(F)ccc1-c1sc2cc(F)c(F)cc2c1-c1c(O)c(C)nn(C)c1=O [5-031] | 4 (Herbicidal rate of 70% or more and less than 90%) | 5 (Herbicidal rate of 90% or more (almost completely withered)) | 5 (Herbicidal rate of 90% or more (almost completely withered)) | 5 (Herbicidal rate of 90% or more (almost completely withered)) | 5 (Herbicidal rate of 90% or more (almost completely withered)) | 0 (Herbicidal rate of 5% or less (almost no effect)) | 2 (Herbicidal rate of 20% or more and less than 40%) | 5 (Herbicidal rate of 90% or more (almost completely withered)) | 4 (Herbicidal rate of 70% or more and less than 90%) | 5 (Herbicidal rate of 90% or more (almost completely withered)) | 5 (Herbicidal rate of 90% or more (almost completely withered)) | 5 (Herbicidal rate of 90% or more (almost completely withered)) | 2 (Herbicidal rate of 20% or more and less than 40%) | 0 (Herbicidal rate of 5% or less (almost no effect)) | 5 (Herbicidal rate of 90% or more (almost completely withered)) | 5 (Herbicidal rate of 90% or more (almost completely withered)) | 5 (Herbicidal rate of 90% or more (almost completely withered)) | 5 (Herbicidal rate of 90% or more (almost completely withered)) | M: velvetleaf, herbicidal effect grade (velvetleaf [2]): 4 (Herbicidal rate of 70% or more and less than 90%); O: lambsquarters, herbicidal effect grade (lambsquarters [3]): 5 (Herbicidal rate of 90% or more (almost completely withered)); L: windgrass, herbicidal effect grade (windgrass [7]): 5 (Herbicidal rate of 90% or more (almost completely withered)); H: barnyard grass, herbicidal effect grade (barnyard grass [8]): 3 (Herbicidal rate of 40% or more and less than 70%); F: southern crabgrass, herbicidal effect grade (southern crabgrass [9]): 4 (Herbicidal rate of 70% or more and less than 90%); P: chickweed, herbicidal effect grade (chickweed [10]): 3 (Herbicidal rate of 40% or more and less than 70%); J: blackgrass, herbicidal effect grade (blackgrass [11]): 3 (Herbicidal rate of 40% or more and less than 70%); I: wild oat, herbicidal effect grade (wild oat [14]): 1 (Herbicidal rate of 5% or more and less than 20%); K: Italian ryegrass, herbicidal effect grade (Italian ryegrass [18]): 0 (Herbicidal rate of 5% or less (almost no effect)); N: redroot pigweed, herbicidal effect grade (redroot pigweed [19]): 5 (Herbicidal rate of 90% or more (almost completely withered)); G: green foxtail, herbicidal effect grade (green foxtail [20]): 5 (Herbicidal rate of 90% or more (almost completely withered))
2 | COc1ccccc1-c1sc2cc(Cl)c(Cl)cc2c1-c1c(O)c(C)nn(C)c1=O [5-041] | 0 (Herbicidal rate of 5% or less (almost no effect)) | 3 (Herbicidal rate of 40% or more and less than 70%) | 5 (Herbicidal rate of 90% or more (almost completely withered)) | 0 (Herbicidal rate of 5% or less (almost no effect)) | 4 (Herbicidal rate of 70% or more and less than 90%) | 5 (Herbicidal rate of 90% or more (almost completely withered)) | 0 (Herbicidal rate of 5% or less (almost no effect)) | 3 (Herbicidal rate of 40% or more and less than 70%) | 3 (Herbicidal rate of 40% or more and less than 70%) | 5 (Herbicidal rate of 90% or more (almost completely withered)) | 3 (Herbicidal rate of 40% or more and less than 70%) | 0 (Herbicidal rate of 5% or less (almost no effect)) | 0 (Herbicidal rate of 5% or less (almost no effect)) | 5 (Herbicidal rate of 90% or more (almost completely withered)) | 4 (Herbicidal rate of 70% or more and less than 90%) | 3 (Herbicidal rate of 40% or more and less than 70%) | 4 (Herbicidal rate of 70% or more and less than 90%) | 3 (Herbicidal rate of 40% or more and less than 70%) | –
3 | CCOc1ccccc1-c1sc2cc(Cl)c(Cl)cc2c1-c1c(O)c(C)nn(C)c1=O [5-045] | 0 (Herbicidal rate of 5% or less (almost no effect)) | 3 (Herbicidal rate of 40% or more and less than 70%) | 3 (Herbicidal rate of 40% or more and less than 70%) | 0 (Herbicidal rate of 5% or less (almost no effect)) | 3 (Herbicidal rate of 40% or more and less than 70%) | 3 (Herbicidal rate of 40% or more and less than 70%) | 0 (Herbicidal rate of 5% or less (almost no effect)) | 1 (Herbicidal rate of 5% or more and less than 20%) | 3 (Herbicidal rate of 40% or more and less than 70%) | 5 (Herbicidal rate of 90% or more (almost completely withered)) | 3 (Herbicidal rate of 40% or more and less than 70%) | 0 (Herbicidal rate of 5% or less (almost no effect)) | 0 (Herbicidal rate of 5% or less (almost no effect)) | 0 (Herbicidal rate of 5% or less (almost no effect)) | 4 (Herbicidal rate of 70% or more and less than 90%) | 5 (Herbicidal rate of 90% or more (almost completely withered)) | 4 (Herbicidal rate of 70% or more and less than 90%) | 2 (Herbicidal rate of 20% or more and less than 40%) | –
